Assays:
Rattus norvegicus [1] = organism: Rattus norvegicus; assay: animal or person; details: read-out: Inhibition
Rattus norvegicus [2] = organism: Rattus norvegicus; assay: animal or person; details: read-out: Inhibition; remark: listed apart in the source
[3] = target: Prostaglandin G/H synthase 1 (Homo sapiens, UniProt P23219)
Sequence of Prostaglandin G/H synthase 1 (P23219 whole entry): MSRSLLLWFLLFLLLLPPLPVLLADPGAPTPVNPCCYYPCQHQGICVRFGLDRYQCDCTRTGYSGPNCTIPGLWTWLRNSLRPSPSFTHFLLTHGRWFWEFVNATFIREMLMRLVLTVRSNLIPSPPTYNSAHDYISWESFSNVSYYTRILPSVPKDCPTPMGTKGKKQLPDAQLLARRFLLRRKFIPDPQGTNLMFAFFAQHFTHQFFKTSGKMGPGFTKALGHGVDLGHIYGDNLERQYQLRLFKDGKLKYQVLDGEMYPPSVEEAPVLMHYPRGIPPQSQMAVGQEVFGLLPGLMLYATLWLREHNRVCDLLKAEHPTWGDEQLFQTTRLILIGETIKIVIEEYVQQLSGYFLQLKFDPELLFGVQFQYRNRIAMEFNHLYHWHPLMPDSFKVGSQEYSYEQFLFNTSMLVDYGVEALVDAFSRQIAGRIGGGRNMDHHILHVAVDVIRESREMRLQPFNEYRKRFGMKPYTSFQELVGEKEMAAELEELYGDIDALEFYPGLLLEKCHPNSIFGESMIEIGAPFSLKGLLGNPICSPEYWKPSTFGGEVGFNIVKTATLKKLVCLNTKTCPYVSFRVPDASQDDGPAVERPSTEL

Row | Compound | inhibition in vivo at 30 mg/kg (Rattus norvegicus [1]) [%] | inhibition in vivo at 1 mg/kg (Rattus norvegicus [2]) [%] | IC50 [3] [µM]
1 | COc1ccc(C2=C(c3ccc(S(C)(=O)=O)cc3)CCC2)cc1 | 42.7 | 0 | 
2 | CN(C)c1ccc(C2=C(c3ccc(S(C)(=O)=O)cc3)CCC2)cc1Cl |  |  | 37.7
3 | NS(=O)(=O)c1ccc(C2=C(c3ccc(C(F)(F)F)c(F)c3)CCC2)cc1 |  |  | 14.5
4 | COc1ccc(C2=C(c3ccc(S(N)(=O)=O)cc3)CCC2)cc1Cl | 32 | 25 | 
5 | NS(=O)(=O)c1ccc(C2=C(c3ccc(Cl)c(Cl)c3)CCC2)cc1 | 31 | 83 | 
6 | CN(C)c1ccc(C2=C(c3ccc(S(N)(=O)=O)cc3)CCC2)cc1Cl |  |  | 1.8
7 | COc1ccc(C2=C(c3ccc(S(N)(=O)=O)cc3)CCC2)cc1F |  | 25 | 
8 | COc1ccc(C2=C(c3ccc(S(N)(=O)=O)cc3)CCC2)cc1 | 10 |  | 
9 | CS(=O)(=O)c1ccc(C2=C(c3ccc(Cl)c(Cl)c3)CCC2)cc1 |  | 45 | 
10 | NS(=O)(=O)c1ccc(C2=C(c3ccc(F)c(Cl)c3)CCC2)cc1 | 43.3 | 81.5 | 5.1
11 | NS(=O)(=O)c1ccc(C2=C(c3ccc(F)cc3)CCC2)cc1 | 45.3 | 79 | 
12 | CS(=O)(=O)Nc1cc2c(cc1Sc1ccc(F)cc1F)C(=O)CC2 |  |  | > 10
13 | COc1c(Cl)cc(C2=C(c3ccc(S(C)(=O)=O)cc3)CCC2)cc1Cl |  |  | > 100
14 | COc1c(Cl)cc(C2=C(c3ccc(S(N)(=O)=O)cc3)CCC2)cc1Cl |  |  | 71.6
15 | CS(=O)(=O)c1ccc(C2=C(c3ccc(F)c(Cl)c3)CCC2)cc1 | 40 |  | 
16 | CS(=O)(=O)c1ccc(C2=C(c3ccc(C(F)(F)F)c(F)c3)CCC2)cc1 |  |  | > 100
17 | NS(=O)(=O)c1ccc(C2=C(c3cc(F)c(F)c(F)c3)CCC2)cc1 |  |  | > 100
18 | CS(=O)(=O)c1ccc(C2=C(c3ccc(Cl)cc3)CCC2)cc1 | 49 | 21 | 
19 | CS(=O)(=O)c1ccc(C2=C(c3cc(F)c(F)c(F)c3)CCC2)cc1 |  |  | > 100
20 | CS(=O)(=O)c1ccc(C2=C(c3ccc(F)c(C(F)(F)F)c3)CCC2)cc1 |  |  | > 100
21 | NS(=O)(=O)c1ccc(C2=C(c3ccc4c(c3)OCO4)CCC2)cc1 |  |  | 1.9
22 | CS(=O)(=O)c1ccc(C2=C(c3ccc(F)cc3)CCC2)cc1 [SC-57666] | 45.3 | 29.3 | 

Reference: ChEMBL document CHEMBL1128591, “1,2-Diarylcyclopentenes as selective cyclooxygenase-2 inhibitors and orally active anti-inflammatory agents” (J Med Chem, 1995)
